Experimental data as given in PubChem BioAssay AID1963852 (Molecular Pharmacology Branch, DTP, NCI, 2024).

Tested on: 282377-053-R-J1-PDC complex spheroid viability
Experiment: Anticancer human tumor 282377-053-R-J1-PDC patient-derived colon adenocarcinoma cell line growth inhibition [POLQ]
Settings: for IC50: curve of first compound; for viability, T/C: stronger effect = lower value
Summary of the method: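 PDC + HUVEC + MSC complex spheroids; POLQ inhibitors ± partner drugs; top conc. at/near clinical Cmax, else 10 microM (SN-38 1 microM), half-log dilutions; 37 degrees C, 5% CO2.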

[1] = second compound 0.0316 µM, first compound 0.0316 µM
[2] = second compound 0.0316 µM, first compound 0.1 µM
[3] = second compound 0.1 µM, first compound 0.0316 µM
[4] = second compound 0.1 µM, first compound 0.1 µM
[5] = second compound 0.316 µM, first compound 0.0316 µM
[6] = second compound 0.316 µM, first compound 0.1 µM
[7] = second compound 1 µM, first compound 0.0316 µM
[8] = second compound 1 µM, first compound 0.1 µM
[9] = second compound 3.16 µM, first compound 0.0316 µM
[10] = second compound 3.16 µM, first compound 0.1 µM
[11] = second compound 10 µM, first compound 0.0316 µM
[12] = second compound 10 µM, first compound 0.1 µM
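Also: spheroids exposed to compounds for seven days.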
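For viability, T/C in this document: 100% = DMSO vehicle control viability.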

CC(=O)O[C@H]1C(=O)[C@@]2(C)[C@H]([C@H](OC(=O)c3ccccc3)[C@]3(O)C[C@H](OC(=O)[C@H](O)[C@@H](NC(=O)c4ccccc4)c4ccccc4)C(C)=C1C3(C)C)[C@]1(OC(C)=O)CO[C@@H]1C[C@@H]2O + Cc1cccc(N(C)C(=O)C2C(O)CCN2c2nc(C)cc(C(F)(F)F)c2C#N)c1
IC50 (second compound 0.0316 µM): 27.8 nM | IC50 (second compound 0.1 µM): 28 nM | IC50 (second compound 0.316 µM): 26 nM | IC50 (second compound 1 µM): 27.6 nM | IC50 (second compound 3.16 µM): 28.1 nM | IC50 (second compound 10 µM): 26.9 nM | viability, T/C (second compound 0.0316 µM, first compound 0.00949 µM): 103% | viability, T/C (second compound 0.0316 µM, first compound 0.03 µM): 44.3% | viability, T/C (second compound 0.0316 µM, first compound 0.0949 µM): 40.6% | viability, T/C (second compound 0.0316 µM, first compound 0.3 µM): 43% | viability, T/C (second compound 0.0316 µM, first compound 0.949 µM): 45.6% | viability, T/C (second compound 0.0316 µM, first compound 3 µM): 57.6% | viability, T/C (second compound 0.1 µM, first compound 0.00949 µM): 90.3% | viability, T/C (second compound 0.1 µM, first compound 0.03 µM): 47.5% | viability, T/C (second compound 0.1 µM, first compound 0.0949 µM): 43.4% | viability, T/C (second compound 0.1 µM, first compound 0.3 µM): 40.9% | viability, T/C (second compound 0.1 µM, first compound 0.949 µM): 44.8% | viability, T/C (second compound 0.1 µM, first compound 3 µM): 53% | viability, T/C (second compound 0.316 µM, first compound 0.00949 µM): 98.8% | viability, T/C (second compound 0.316 µM, first compound 0.03 µM): 42.5% | viability, T/C (second compound 0.316 µM, first compound 0.0949 µM): 38.5% | viability, T/C (second compound 0.316 µM, first compound 0.3 µM): 37.5% | viability, T/C (second compound 0.316 µM, first compound 0.949 µM): 45.4% | viability, T/C (second compound 0.316 µM, first compound 3 µM): 51.4% | viability, T/C (second compound 1 µM, first compound 0.00949 µM): 92.3% | viability, T/C (second compound 1 µM, first compound 0.03 µM): 44.9% | viability, T/C (second compound 1 µM, first compound 0.0949 µM): 37.2% | viability, T/C (second compound 1 µM, first compound 0.3 µM): 45.6% | viability, T/C (second compound 1 µM, first compound 0.949 µM): 48.8% | viability, T/C (second compound 1 µM, first compound 3 µM): 56.7% | viability, T/C (second compound 3.16 µM, first compound 0.00949 µM): 99.5% | viability, T/C (second compound 3.16 µM, first compound 0.03 µM): 47.2% | viability, T/C (second compound 3.16 µM, first compound 0.0949 µM): 39.5% | viability, T/C (second compound 3.16 µM, first compound 0.3 µM): 44.5% | viability, T/C (second compound 3.16 µM, first compound 0.949 µM): 45.2% | viability, T/C (second compound 3.16 µM, first compound 3 µM): 54.2% | viability, T/C (second compound 10 µM, first compound 0.00949 µM): 95% | viability, T/C (second compound 10 µM, first compound 0.03 µM): 43.1% | viability, T/C (second compound 10 µM, first compound 0.0949 µM): 37.8% | viability, T/C (second compound 10 µM, first compound 0.3 µM): 40.7% | viability, T/C (second compound 10 µM, first compound 0.949 µM): 46.4% | viability, T/C (second compound 10 µM, first compound 3 µM): 58.1%

Cn1ncnc1[C@H]1c2n[nH]c(=O)c3cc(F)cc(c23)N[C@@H]1c1ccc(F)cc1 + COC1C(OC(N)=O)C(O)C(Oc2ccc3c(O)c(NC(=O)c4ccc(O)c(CC=C(C)C)c4)c(=O)oc3c2C)OC1(C)C
IC50 (second compound 0.0316 µM): > 100 nM | IC50 (second compound 0.1 µM): > 100 nM | IC50 (second compound 0.316 µM): > 100 nM | IC50 (second compound 1 µM): > 100 nM | IC50 (second compound 3.16 µM): > 100 nM | IC50 (second compound 10 µM): > 100 nM | viability, T/C (second compound 0.0316 µM, first compound 0.000316 µM): 126% | viability, T/C (second compound 0.0316 µM, first compound 0.001 µM): 108% | viability, T/C (second compound 0.0316 µM, first compound 0.00316 µM): 101% | viability, T/C (second compound 0.0316 µM, first compound 0.01 µM): 98.1% | viability, T/C [1]: 103% | viability, T/C [2]: 97.4% | viability, T/C (second compound 0.1 µM, first compound 0.000316 µM): 106% | viability, T/C (second compound 0.1 µM, first compound 0.001 µM): 122% | viability, T/C (second compound 0.1 µM, first compound 0.00316 µM): 92% | viability, T/C (second compound 0.1 µM, first compound 0.01 µM): 100% | viability, T/C [3]: 118% | viability, T/C [4]: 103% | viability, T/C (second compound 0.316 µM, first compound 0.000316 µM): 97.5% | viability, T/C (second compound 0.316 µM, first compound 0.001 µM): 81.7% | viability, T/C (second compound 0.316 µM, first compound 0.00316 µM): 85.4% | viability, T/C (second compound 0.316 µM, first compound 0.01 µM): 111% | viability, T/C [5]: 102% | viability, T/C [6]: 132% | viability, T/C (second compound 1 µM, first compound 0.000316 µM): 105% | viability, T/C (second compound 1 µM, first compound 0.001 µM): 111% | viability, T/C (second compound 1 µM, first compound 0.00316 µM): 111% | viability, T/C (second compound 1 µM, first compound 0.01 µM): 90.5% | viability, T/C [7]: 118% | viability, T/C [8]: 98.1% | viability, T/C (second compound 3.16 µM, first compound 0.000316 µM): 88.2% | viability, T/C (second compound 3.16 µM, first compound 0.001 µM): 106% | viability, T/C (second compound 3.16 µM, first compound 0.00316 µM): 92.1% | viability, T/C (second compound 3.16 µM, first compound 0.01 µM): 99.5% | viability, T/C [9]: 107% | viability, T/C [10]: 126% | viability, T/C (second compound 10 µM, first compound 0.000316 µM): 112% | viability, T/C (second compound 10 µM, first compound 0.001 µM): 98.5% | viability, T/C (second compound 10 µM, first compound 0.00316 µM): 104% | viability, T/C (second compound 10 µM, first compound 0.01 µM): 102% | viability, T/C [11]: 105% | viability, T/C [12]: 105%

COc1cc(C2c3cc4c(cc3C(OC3OC5COC(C)OC5C(O)C3O)C3COC(=O)C23)OCO4)cc(OC)c1O (stereo unspecified) + Nc1ccc(C#CCN(C(=O)Cc2ncc(C(F)(F)F)cc2C(F)(F)F)c2ccc(F)cc2)nn1
IC50 (second compound 0.0316 µM): > 10000 nM | IC50 (second compound 0.1 µM): > 10000 nM | IC50 (second compound 0.316 µM): > 10000 nM | IC50 (second compound 1 µM): > 10000 nM | IC50 (second compound 3.16 µM): > 10000 nM | IC50 (second compound 10 µM): > 10000 nM | viability, T/C [1]: 113% | viability, T/C [2]: 88.9% | viability, T/C (second compound 0.0316 µM, first compound 0.316 µM): 116% | viability, T/C (second compound 0.0316 µM, first compound 1 µM): 114% | viability, T/C (second compound 0.0316 µM, first compound 3.16 µM): 109% | viability, T/C (second compound 0.0316 µM, first compound 10 µM): 108% | viability, T/C [3]: 100% | viability, T/C [4]: 97.8% | viability, T/C (second compound 0.1 µM, first compound 0.316 µM): 83.5% | viability, T/C (second compound 0.1 µM, first compound 1 µM): 94.3% | viability, T/C (second compound 0.1 µM, first compound 3.16 µM): 98% | viability, T/C (second compound 0.1 µM, first compound 10 µM): 87.3% | viability, T/C [5]: 93.1% | viability, T/C [6]: 99.3% | viability, T/C (second compound 0.316 µM, first compound 0.316 µM): 75.8% | viability, T/C (second compound 0.316 µM, first compound 1 µM): 99.7% | viability, T/C (second compound 0.316 µM, first compound 3.16 µM): 96.6% | viability, T/C (second compound 0.316 µM, first compound 10 µM): 93.5% | viability, T/C [7]: 88.6% | viability, T/C [8]: 98.6% | viability, T/C (second compound 1 µM, first compound 0.316 µM): 107% | viability, T/C (second compound 1 µM, first compound 1 µM): 121% | viability, T/C (second compound 1 µM, first compound 3.16 µM): 113% | viability, T/C (second compound 1 µM, first compound 10 µM): 83% | viability, T/C [9]: 118% | viability, T/C [10]: 102% | viability, T/C (second compound 3.16 µM, first compound 0.316 µM): 119% | viability, T/C (second compound 3.16 µM, first compound 1 µM): 127% | viability, T/C (second compound 3.16 µM, first compound 3.16 µM): 92.5% | viability, T/C (second compound 3.16 µM, first compound 10 µM): 91.9% | viability, T/C [11]: 107% | viability, T/C [12]: 122% | viability, T/C (second compound 10 µM, first compound 0.316 µM): 139% | viability, T/C (second compound 10 µM, first compound 1 µM): 146% | viability, T/C (second compound 10 µM, first compound 3.16 µM): 115% | viability, T/C (second compound 10 µM, first compound 10 µM): 106%
